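1) Cells in 96-well plates. 2) Compound, 48 h, 5 concentrations. 3) Linear interpolation between surrounding doses. 4) Unreached endpoint = highest concentration. Here, GI50 denotes the concentration required for 50% inhibition of growth. TGI: total growth inhibition.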

Among the test systems are TK-10 renal; OVCAR-4 ovarian; HL-60(TB) leukemia; U251 CNS; OVCAR-8 ovarian; M14 melanoma; MDA-MB-435; SK-MEL-2 melanoma; HCT-15 colon; EKVX NSCLC.
Experiment in all cases: NCI tumour cell line growth inhibition, 48 h

Regarding `Cc1cccc(NC(=O)c2sc3nc4c(cc3c2N)C(=O)CCC4)c1`, the GI50 is more than 100 µM with TK-10 renal; 0.706 µM in the experiment on OVCAR-4 ovarian; 0.393 µM in the experiment on HL-60(TB) leukemia; 0.316 µM in the experiment on U251 CNS; 1.23 µM in the experiment on OVCAR-8 ovarian; 0.179 µM with M14 melanoma. Moreover, the GI50 is 0.0302 µM with MDA-MB-435, 0.266 µM in the experiment on SK-MEL-2 melanoma and 0.156 µM with HCT-15 colon. Moreover, the TGI in the experiment with TK-10 renal is more than 100 µM; with OVCAR-4 ovarian, 32.5 µM; in the experiment on HL-60(TB) leukemia, more than 100 µM; with U251 CNS it was more than 34.6 µM; with OVCAR-8 ovarian, more than 91.9 µM; in the experiment on M14 melanoma, more than 34.6 µM. In addition, the TGI in the experiment on MDA-MB-435 was 0.126 µM; with SK-MEL-2 melanoma, more than 54.2 µM; in the experiment on HCT-15 colon, more than 100 µM.
As to `Cn1c([N+](=O)[O-])cnc1C=C1C(=O)c2ccccc2C1=O`, the GI50 with TK-10 renal is 7.07 µM; with OVCAR-4 ovarian it was 6.36 µM; in the experiment with HL-60(TB) leukemia, 2.27 µM; with U251 CNS, 5.8 µM; in the experiment on OVCAR-8 ovarian, 2.18 µM; with M14 melanoma, 3.83 µM. The GI50 was 2.67 µM in the experiment with MDA-MB-435, 2.46 µM with SK-MEL-2 melanoma and 2.13 µM in the experiment with HCT-15 colon. Further, the TGI with TK-10 renal stood at 21.8 µM; in the experiment on OVCAR-4 ovarian it was 55.4 µM; in the experiment with HL-60(TB) leukemia it was 6.08 µM; with U251 CNS, 20.7 µM; in the experiment with OVCAR-8 ovarian, 6.54 µM; with M14 melanoma, 16.6 µM. The TGI was found to be 11.7 µM with MDA-MB-435, 6.24 µM with SK-MEL-2 melanoma and 6.77 µM with HCT-15 colon.
For `Cc1ccc2c(c1)CN1c3ccc(C)cc3CN2C1c1ccccc1O`, the TGI was 88.1 µM in the experiment with TK-10 renal; more than 100 µM with OVCAR-4 ovarian; more than 100 µM in the experiment on HL-60(TB) leukemia; more than 100 µM with U251 CNS; more than 100 µM in the experiment with OVCAR-8 ovarian; 54.9 µM in the experiment on EKVX NSCLC. In addition, the TGI in the experiment on M14 melanoma, with SK-MEL-2 melanoma and with HCT-15 colon was more than 100 µM in each case.
As for `Nc1ncnc2c1N=C(c1ccc3c(c1)OCO3)CC(c1ccc(Cl)cc1)N2` (centres undefined), the GI50 with TK-10 renal is 8.22 µM; with OVCAR-4 ovarian, 4.58 µM; in the experiment with HL-60(TB) leukemia, 5.38 µM; in the experiment on U251 CNS, 6.19 µM; in the experiment on OVCAR-8 ovarian, 4.66 µM; in the experiment with EKVX NSCLC, 40.6 µM. Moreover, the GI50 in the experiment on M14 melanoma was 25.5 µM; in the experiment on MDA-MB-435, 56.3 µM; with HCT-15 colon, 3.05 µM. The TGI was 38.9 µM in the experiment on TK-10 renal; 35.2 µM in the experiment with OVCAR-4 ovarian; more than 100 µM in the experiment on HL-60(TB) leukemia; 25.8 µM in the experiment with U251 CNS; 25.1 µM in the experiment on OVCAR-8 ovarian; more than 100 µM in the experiment on EKVX NSCLC. Also, the TGI in the experiment on M14 melanoma, in the experiment on MDA-MB-435 and in the experiment on HCT-15 colon was more than 100 µM in each case.
Turning to `N#CC(C(=O)C(=O)Nc1c(Cl)cccc1Cl)c1ccccc1` (centres undefined), the GI50 with TK-10 renal, in the experiment on OVCAR-4 ovarian, in the experiment with HL-60(TB) leukemia, with U251 CNS, in the experiment with EKVX NSCLC and with M14 melanoma was more than 100 µM each time. Further, the GI50 in the experiment with SK-MEL-2 melanoma and in the experiment with HCT-15 colon was more than 100 µM throughout. The TGI in the experiment with TK-10 renal, with OVCAR-4 ovarian, in the experiment with HL-60(TB) leukemia, with U251 CNS, with OVCAR-8 ovarian and in the experiment with EKVX NSCLC was more than 100 µM throughout. Besides, the TGI in the experiment with M14 melanoma, in the experiment with SK-MEL-2 melanoma and in the experiment with HCT-15 colon was more than 100 µM in each case.
As for `Cc1nc(N)nc(CCC(=O)Nc2cccc(C(F)(F)F)c2)c1-c1ccc(Cl)cc1`, the TGI with TK-10 renal, with OVCAR-4 ovarian, with HL-60(TB) leukemia, in the experiment on U251 CNS, in the experiment with OVCAR-8 ovarian and in the experiment with EKVX NSCLC was more than 100 µM each time. Further, the TGI with M14 melanoma, in the experiment on SK-MEL-2 melanoma and in the experiment on HCT-15 colon was more than 100 µM each time.
Regarding `O=C(Nc1cccc(-n2cc(-c3ccncc3)c(-c3cc(O)cc(Cl)c3)n2)c1)c1ccc(N2CCOCC2)c(C(F)(F)F)c1`, the GI50 in the experiment with OVCAR-4 ovarian is more than 100 µM; in the experiment on HL-60(TB) leukemia, 0.81 µM; with U251 CNS, 1.4 µM; in the experiment with OVCAR-8 ovarian it was 1.64 µM; in the experiment on M14 melanoma it was 0.774 µM; with MDA-MB-435 it was 2.05 µM. Also, the values for the GI50 with SK-MEL-2 melanoma and with HCT-15 colon were 2.34 µM and 0.559 µM, respectively. In addition, the TGI with OVCAR-4 ovarian is more than 100 µM; with HL-60(TB) leukemia, 3.04 µM; in the experiment with U251 CNS it was 6.3 µM; with OVCAR-8 ovarian it was more than 100 µM; in the experiment on M14 melanoma, 2.74 µM; with MDA-MB-435, more than 100 µM. The values for the TGI in the experiment on SK-MEL-2 melanoma and with HCT-15 colon were 13.2 µM and 11.3 µM, respectively.
With `FC(F)(F)Oc1cccc(-c2cc(NCCCCCCNc3cc(-c4cccc(OC(F)(F)F)c4)nc4ccc(N5CCCC5)cc34)c3cc(N4CCCC4)ccc3n2)c1`, the GI50 in the experiment with TK-10 renal was 1.78 µM; in the experiment with OVCAR-4 ovarian, 1.7 µM; with U251 CNS, 2.11 µM; in the experiment with OVCAR-8 ovarian it was 2.13 µM; with M14 melanoma, 1.84 µM; with MDA-MB-435, 1.82 µM. The GI50 with SK-MEL-2 melanoma was 1.96 µM; with HCT-15 colon, 1.84 µM. In addition, the TGI turned out to be 3.37 µM with TK-10 renal; 3.19 µM in the experiment with OVCAR-4 ovarian; 4.62 µM in the experiment on U251 CNS; 5.08 µM in the experiment on OVCAR-8 ovarian; 3.65 µM with M14 melanoma; 3.27 µM with MDA-MB-435. Further, the TGI in the experiment on SK-MEL-2 melanoma stood at 3.63 µM; with HCT-15 colon it was 3.69 µM.
Consider `CC1(C)N=C(N)N=C(N)N1c1ccc(CCC(=O)Nc2ccc(S(=O)(=O)F)cc2)cc1`, for which the GI50 with TK-10 renal is 1.72 µM; in the experiment with OVCAR-4 ovarian, more than 78.5 µM; in the experiment on HL-60(TB) leukemia, 0.854 µM; in the experiment with U251 CNS, 2.01 µM; with OVCAR-8 ovarian, 5.08 µM; with M14 melanoma it was 0.936 µM. In addition, the GI50 is 0.461 µM in the experiment with MDA-MB-435, 26.4 µM in the experiment with SK-MEL-2 melanoma and 3.48 µM in the experiment on HCT-15 colon. Further, the TGI in the experiment with TK-10 renal, with OVCAR-4 ovarian, with HL-60(TB) leukemia, in the experiment on U251 CNS, in the experiment on OVCAR-8 ovarian and with M14 melanoma was more than 100 µM each time. The TGI in the experiment with MDA-MB-435, with SK-MEL-2 melanoma and with HCT-15 colon was more than 100 µM each time.

The record behind these values is PubChem BioAssay (NCI).
